Laboratory results from patent US20220241249A1, “PHARMACEUTICAL COMPOSITION AND KIT CONTAINING NOVEL PENAM DERIVATIVE OR SALT THEREOF AND ONE OR MORE COMPOUNDS SELECTED FROM beta-LACTAMASE INHIBITORY COMPOUND AND ANTIBACTERIAL COMPOUND OR SALTS THEREOF” (priority 2019, published 2022).
Converted amounts (≈) assume the structure as drawn.

How the values were obtained:
Experiment in all cases: Antibacterial activity evaluation test, MIC by broth microdilution (CLSI)
Assay type in all cases: cell-based
[1] = test system: CTX-M-15-containing Escherichia coli strain (TK-1747)
Protocol: (§1) The minimum inhibitory concentration (MIC) was measured according to the Clinical and Laboratory Standards Institute (CLSI) standard method by using the following broth microdilution method.
(§2) As bacteria, a Pseudomonas aeruginosa strain ATCC27853, an AmpC-derepressed Pseudomonas aeruginosa mutant strain (S-3028), an IMP-1-containing Pseudomonas aeruginosa strain (S-2838), a VIM-2-containing Pseudomonas aeruginosa strain (S-3779), a GES-19 and GES-20-containing Pseudomonas aeruginosa strain (S-3759), a CTX-M-15-containing Escherichia coli strain (TK-1747), a KPC-2-containing Klebsiella pneumoniae strain (Y-995), an OXA-48-containing Klebsiella pneumoniae strain (Y-1062), and an NDM-1-containing Klebsiella pneumoniae strain (Y-1007) were used. The test bacterial cells that had been cultured overnight on a Mueller Hinton agar medium were scraped off, suspended at a density equivalent to 0.5 McFarland standard, and diluted 10-fold, thereby obtaining an inoculum. A cation-adjusted Mueller Hinton medium containing a test compound was inoculated with 0.005 mL of the inoculum, and the cells were cultured at 35° C. for 16 to 20 hours. The minimum drug concentration at which the growth of bacteria was not visually observed was defined as MIC (μg/mL).
(§3) An antibacterial activity evaluation test was performed in the same manner as in Test Example 1.

[2] = test system: IMP-1-containing Pseudomonas aeruginosa strain (S-2838)
Protocol: as §1, §2, §3

[3] = test system: GES-19 and GES-20-containing Pseudomonas aeruginosa strain (S-3759)
Protocol: as §1, §2, §3

[4] = test system: VIM-2-containing Pseudomonas aeruginosa strain (S-3779)
Protocol: as §1, §2, §3

[5] = test system: OXA-48-containing Klebsiella pneumoniae strain (Y-1062)
Protocol: as §1, §2, §3

[6] = test system: AmpC-derepressed Pseudomonas aeruginosa mutant strain (S-3028)
Protocol: as §1, §2, §3

[7] = test system: KPC-2-containing Klebsiella pneumoniae strain (Y-995)
Protocol: as §1, §2, §3

[8] = test system: NDM-1-containing Klebsiella pneumoniae strain (Y-1007)
Protocol: as §1, §2, §3

[9] = test system: Pseudomonas aeruginosa strain ATCC27853
Protocol: as §1, §2, §3

[10] = Pseudomonas aeruginosa, ATCC27853

| Structure (SMILES) | MIC ([1]; Escherichia coli) [µg/mL] | MIC ([2]; Pseudomonas aeruginosa) [µg/mL] | MIC ([3]; Pseudomonas aeruginosa) [µg/mL] | MIC ([4]; Pseudomonas aeruginosa) [µg/mL] | MIC ([5]; Klebsiella pneumoniae) [µg/mL] | MIC ([6]; Pseudomonas aeruginosa) [µg/mL] | MIC ([7]; Klebsiella pneumoniae) [µg/mL] | MIC ([8]; Klebsiella pneumoniae) [µg/mL] | MIC [9, 10] [µg/mL] | other results |
| --- | --- | --- | --- | --- | --- | --- | --- | --- | --- | --- |
| CC(C)(O/N=C(\C(=O)NC1C(=O)N2C[C@@](C(=O)O)(N3CCC[C@H](NC(=O)C(=O)c4ccc(O)c(O)c4Cl)C3=O)S[C@H]12)c1csc(N)n1)C(=O)O (stereo partly drawn) [Example 156] | – | – | – | – | – | – | – | – | – | Antibacterial activity (MIC) Escherichia coli TK-1747 ([1]; Escherichia coli TK-1747): 0.12 µg/mL; Antibacterial activity (MIC) Pseudomonas aeruginosa S-2838 ([2]; Pseudomonas aeruginosa S-2838): 1 µg/mL; Antibacterial activity (MIC) Pseudomonas aeruginosa S-3759 ([3]; Pseudomonas aeruginosa S-3759): 2 µg/mL; Antibacterial activity (MIC) Pseudomonas aeruginosa S-3779 ([4]; Pseudomonas aeruginosa S-3779): 1 µg/mL; Antibacterial activity (MIC) Klebsiella pneumoniae Y-1062 ([5]; Klebsiella pneumoniae Y-1062): 0.5 µg/mL; Antibacterial activity (MIC) Pseudomonas aeruginosa S-3028 ([6]; Pseudomonas aeruginosa S-3028): 0.5 µg/mL; Antibacterial activity (MIC) Klebsiella pneumoniae Y-995 ([7]; Klebsiella pneumoniae Y-995): 0.12 µg/mL; Antibacterial activity (MIC) Klebsiella pneumoniae Y-1007 ([8]; Klebsiella pneumoniae Y-1007): < 0.06 µg/mL; Antibacterial activity (MIC) Pseudomonas aeruginosa ATCC 27853 [9, 10]: 2 µg/mL |
| C[C@H]1CN(/N=C/CNC(=O)C(=O)c2ccc(O)c(O)c2Cl)C(=O)N1[C@]1(C(=O)O)CN2C(=O)C(NC(=O)/C(=N\OC(C)(C)C(=O)O)c3csc(N)n3)[C@H]2S1 (stereo partly drawn) [Example 47] | < 0.06 | 4 (≈ 5.02 µM) | 1 (≈ 1.26 µM) | 1 (≈ 1.26 µM) | 0.25 (≈ 0.314 µM) | 0.12 (≈ 0.151 µM) | 0.5 (≈ 0.628 µM) | < 0.06 | 0.5 (≈ 0.628 µM) | – |
| Nc1nc(/C(=N/O[C@@H](CO)C(=O)O)C(=O)NC2C(=O)N3C[C@@](C(=O)O)(N4CCN(NC(=O)C(=O)c5ccc(O)c(O)c5Cl)C4=O)S[C@H]23)cs1 (stereo partly drawn) [Example 113, (3R,5R,6R)-6-((Z)-2-(2-aminothiazol-4-yl)-2-(((S)-1-carboxy-2-hydroxyethoxy)imino)-acetamido)-3-(3-(2-(2-chloro-3,4-dihydroxy-phenyl)-2-oxoaceta-mido)-2-oxoimidazol-idin-1-yl)-7-oxo-4-thia-1-azabicyclo[3.2.0]-heptane-3-carboxylic acid] | < 0.06 | 0.5 (≈ 0.673 µM) | 1 (≈ 1.35 µM) | 0.5 (≈ 0.673 µM) | 0.25 (≈ 0.336 µM) | 0.25 (≈ 0.336 µM) | 0.12 (≈ 0.161 µM) | < 0.06 | 4 (≈ 5.38 µM) | – |
| Nc1nc(/C(=N/OC2(C(=O)O)CC2)C(=O)N[C@@H]2C(=O)N3C[C@@](C(=O)O)(N4CCN(NC(=O)c5ccc(O)c(O)c5Cl)C4=O)S[C@H]23)cs1 [Example 8, (3R,5R,6R)-6-((Z)-2-(2-aminothiazol-4-yl)-2-((1-carboxycyclopropoxy)imino)acetamido)-3-(3-(2-chloro-3,4-dihydroxybenzamido)-2-oxoimidazolidin-1-yl)-7-oxo-4-thia-1-azabicyclo[3.2.0]heptane-3-carboxylic acid] | 0.12 (≈ 0.169 µM) | 4 (≈ 5.63 µM) | 2 (≈ 2.81 µM) | 1 (≈ 1.41 µM) | 16 (≈ 22.5 µM) | 0.5 (≈ 0.703 µM) | 0.06 (≈ 0.0844 µM) | < 0.06 | 0.25 (≈ 0.352 µM) | – |
| C[C@H]1CN(/N=C/CNC(=O)c2ccc(O)c(O)c2Cl)C(=O)N1[C@]1(C(=O)O)CN2C(=O)C(NC(=O)/C(=N\OC(C)(C)C(=O)O)c3csc(N)n3)[C@H]2S1 (stereo partly drawn) [Example 45] | 0.12 (≈ 0.156 µM) | 2 (≈ 2.6 µM) | 2 (≈ 2.6 µM) | 1 (≈ 1.3 µM) | 1 (≈ 1.3 µM) | 2 (≈ 2.6 µM) | 0.25 (≈ 0.325 µM) | < 0.06 | 1 (≈ 1.3 µM) | – |
| CC(C)(O/N=C(\C(=O)N[C@@H]1C(=O)N2C[C@@](C(=O)O)(N3CC(CNC(=O)c4ccc(O)c(O)c4Cl)OC3=O)S[C@H]12)c1csc(N)n1)C(=O)O (stereo partly drawn) [Example 73, (3R,5R,6R)-6-((Z)-2-(2-aminothiazol-4-yl)-2-(((2-carboxypropan-2-yl)oxy)imino)acetamido)-3-(5-((2-chloro-3,4-dihydroxybenzamido)methyl)-2-oxooxazolidin-3-yl)-7-oxo-4-thia-1-azabicyclo[3.2.0]heptane-3-carboxylic acid] | 0.25 (≈ 0.343 µM) | 0.5 (≈ 0.687 µM) | 0.5 (≈ 0.687 µM) | 1 (≈ 1.37 µM) | 1 (≈ 1.37 µM) | 0.25 (≈ 0.343 µM) | 16 (≈ 22 µM) | 0.12 (≈ 0.165 µM) | 0.5 (≈ 0.687 µM) | – |
| Nc1nc(/C(=N/OC2(C(=O)O)CC2)C(=O)N[C@@H]2C(=O)N3C[C@@](C(=O)O)(N4CCN(NC(=O)CCNC(=O)C(=O)c5ccc(O)c(O)c5Cl)C4=O)S[C@H]23)c(Cl)s1 [Example 107, (3R,5R,6R)-6-((Z)-2-(2-amino-5-chlorothia-zol-4-yl)-2-((1-carboxy-cyclopropoxy)imino)-acetamido)-3-(3-(3-(2-(2-chloro-3,4-dihydroxy-phenyl)-2-oxoaceta-mido)proanamido)-2-oxoimidazolidin-1-yl)-7-oxo-4-thia-1-aza-bicyclo[3.2.0]heptane-3-carboxylic acid] | – | – | – | – | – | – | – | – | – | MIC ([1]; Escherichia coli TK-1747, 35° C., 16 to 20 hours): 0.25 µg/mL (≈ 0.296 µM); MIC ([2]; Pseudomonas aeruginosa S-2838, 35° C., 16 to 20 hours): 0.5 µg/mL (≈ 0.592 µM); MIC ([3]; Pseudomonas aeruginosa S-3759, 35° C., 16 to 20 hours): 0.5 µg/mL (≈ 0.592 µM); MIC ([4]; Pseudomonas aeruginosa S-3779, 35° C., 16 to 20 hours): 0.25 µg/mL (≈ 0.296 µM); MIC ([5]; Klebsiella pneumoniae Y-1062, 35° C., 16 to 20 hours): 0.25 µg/mL (≈ 0.296 µM); MIC ([6]; Pseudomonas aeruginosa S-3028, 35° C., 16 to 20 hours): 2 µg/mL (≈ 2.37 µM); MIC ([7]; Klebsiella pneumoniae Y-995, 35° C., 16 to 20 hours): 2 µg/mL (≈ 2.37 µM); MIC ([8]; Klebsiella pneumoniae Y-1007, 35° C., 16 to 20 hours): <0.06 µg/mL; MIC ([9]; Pseudomonas aeruginosa ATCC 27853, 35° C., 16 to 20 hours): 0.25 µg/mL (≈ 0.296 µM) |
| CC(C)(O/N=C(\C(=O)N[C@@H]1C(=O)N2C[C@@](C(=O)O)(N3CCCN(NC(=O)C(=O)c4ccc(O)c(O)c4Cl)C3=O)S[C@H]12)c1csc(N)n1)C(=O)O [Example 86, (3R,5R,6R)-6-((Z)-2-(2-aminothiazol-4-yl)-2-(((2-carboxypropan-2-yl)oxy)imino)acetamido)-3-(3(-2-(2-chloro-3,4-dihydroxyphenyl)-2-oxoacetamido)-2-oxotetrahydropyrimidin-1(2H)-yl)-7-oxo-4-thia-1-azabicyclo[3.2.0]heptane-3-carboxylic acid] | 1 (≈ 1.32 µM) | 1 (≈ 1.32 µM) | 2 (≈ 2.65 µM) | 2 (≈ 2.65 µM) | 1 (≈ 1.32 µM) | 1 (≈ 1.32 µM) | 0.5 (≈ 0.662 µM) | < 0.06 | 4 (≈ 5.3 µM) | – |
| CC(C)(O/N=C(\C(=O)N[C@@H]1C(=O)N2C[C@@](C(=O)O)(N3CCN(NC(=O)CCNC(=O)C(=O)c4ccc(O)c(O)c4Cl)C3=O)S[C@H]12)c1csc(N)n1)C(=O)O [Example 30, (3R,5R,6R)-6-((Z)-2-(2-aminothiazol-4-yl)-2-(((2-carboxypropan-2-yl)oxy)imino)acetamido)-3-(3-(3-(2-(2-chloro-3,4-dihydroxyphenyl)-2-oxoacetamido)propanamido)-2-oxoimidazolidin-1-yl)-7-oxo-4-thia-1-azabicyclo[3.2.0]heptane-3-carboxylic acid] | 0.25 (≈ 0.308 µM) | 0.5 (≈ 0.616 µM) | 0.5 (≈ 0.616 µM) | 0.5 (≈ 0.616 µM) | 0.5 (≈ 0.616 µM) | < 0.06 | 0.25 (≈ 0.308 µM) | < 0.06 | 0.25 (≈ 0.308 µM) | – |
| CC(C)(O/N=C(\C(=O)N[C@@H]1C(=O)N2C[C@@](C(=O)O)(N3CC[C@H](NC(=O)C(=O)c4ccc(O)c(O)c4Cl)C3=O)S[C@H]12)c1csc(N)n1)C(=O)O [Example 84, (3R,5R,6R)-6-((Z)-2-(2-aminothiazol-4-yl)-2-(((2-carboxypropan-2-yl)oxy)imino)acetamido)-3-((S)-3-(2-(2-chloro-3,4-dihydroxyphenyl)-2-oxoacetamido)-2-oxopyrrolidin-1-yl)-7-oxo-4-thia-1-azabicyclo[3.2.0]heptane-3-carboxylic acid] | < 0.06 | 0.5 (≈ 0.676 µM) | 1 (≈ 1.35 µM) | 0.5 (≈ 0.676 µM) | < 0.06 | 0.5 (≈ 0.676 µM) | 0.5 (≈ 0.676 µM) | < 0.06 | 0.5 (≈ 0.676 µM) | – |
| CC(C)(O/N=C(\C(=O)N[C@@H]1C(=O)N2C[C@@](C(=O)O)(N3CCN(NC(=O)c4cc(Cl)c(O)c(O)c4Cl)C3=O)S[C@H]12)c1csc(N)n1)C(=O)O [Example 83, (3R,5R,6R)-6-((Z)-2-(2-aminothiazol-4-yl)-2-(((2-carboxypropan-2-yl)oxy)imino)acetamido)-3-(3-(2,5-dichloro-3,4-dihydroxybenzamido)-2-oxoimidazolidin-1-yl)-7-oxo-4-thia-1-azabicyclo[3.2.0]heptane-3-carboxylic acid] | 0.5 (≈ 0.669 µM) | 0.5 (≈ 0.669 µM) | 1 (≈ 1.34 µM) | 0.5 (≈ 0.669 µM) | 2 (≈ 2.68 µM) | 0.5 (≈ 0.669 µM) | 0.25 (≈ 0.334 µM) | < 0.06 | 0.25 (≈ 0.334 µM) | – |
